Measured values reported in PMC12677607, “Identification of a Pair of Linear or Cyclic Naturally Inspired Bifunctional Lipopeptide Antibiotics That Overcome Antimicrobial Resistance” (Advanced Science, 2025).
≈ marks a conversion by molar mass, not a printed value. Bridge positions count the residues as written; N and C are the ends. Square brackets hold non-standard residues; d marks the D form. Peptide text beside a SMILES is read from it. * marks the point of attachment. Myristoyl = CCCCCCCCCCCCCC(=O)*; Orn = NCCC[C@H](N)C(=O)O; Dab = NCC[C@H](N)C(=O)O; Dap = NC[C@H](N)C(=O)O

What was measured:
[1] = Isothermal titration calorimetry; format: binding; settings: Table S12, ITC, 20 mM HEPES pH 7.5, 20 injections
Experimental: (§1) Calorimetric experiments were performed to evaluate the interaction between CL, PE, PG, or LPS and aquicidine L or aquicidine C4. To determine the affinity between aquicidine L or aquicidine C4 and CL, PE, or PG, both 2 mM CL, PE, or PG and 0.2 mM aquicidine L or aquicidine C4 were dissolved in 20 mM HEPES buffer (pH 7.5). To determine the interaction between LPS and aquicidine L or aquicidine C4, 2 mM LPS and 0.2 mM aquicidine L or aquicidine C4 were dissolved in H2O. Sequential injections of CL, PE, PG, or LPS into the calorimetric cell filled with aquicidine L or aquicidine C4 were repeated 20 times with equilibration intervals of 200 s. Data were collected by using a MicroCal PEAQ‐ITC instrument and calculated for the equilibrium dissociation constant (KD), change of enthalpy (ΔH), and change of entropy […].

S. aureus USA300 [2] = assay: UDP-MurNAc-pentapeptide accumulation assay; format: cell-based; settings: 8 × MIC, 1 hr, LC-MS
Experimental: To determine the effects of aquicidine L or aquicidine C4 on bacterial cell wall biosynthesis of S. aureus USA300, the accumulation of the precursor UDP‐MurNAc‐pentapeptide was investigated in antibiotic‐treated cell cultures. 50 µL of overnight cultures were transferred to 5 mL of fresh LB broth and cultured to 0.5 of OD600 at 37 °C and 200 rpm. The cultures were treated with 130 µg/mL of chloramphenicol for 15 min at 37 °C and 200 rpm, and 128 µg/mL of aquicidine L or 32 µg/mL aquicidine C4 was added. 8 µg/mL of vancomycin and DMSO were used as positive and negative controls, respectively. After an incubation of 1 hr, the cell pellet from 0.5 mL of the cell cultures was resuspended in 30 µL of ddH2O and then boiled for 15 min. Finally, the supernatant was collected and then detected using an Agilent 1290 Series High‐Performance Liquid Chromatography (HPLC) coupled to a 6546 Series QTOF mass spectrometer equipped with an XBridge C18 column (4.6 × 150 mm, 5 µm). Solvent A = H2O (0.1% v/v formic acid) and solvent B = CH3CN (0.1% v/v formic acid) were used for HPLC analysis with 0.4 mL min^−1 of flow rate at 25 °C. Gradient conditions were as follows: t = 0‐1 min, 3% solvent B; t = 2‐7 min, 3‐95% solvent B; t = 7‐8 min, 95% solvent B; t = 8–9 min, 95‐3% solvent B; t = 9–10 min, 3% solvent B.

S. aureus USA300 [3] = assay: Scanning electron microscopy of treated cultures; format: cell-based; settings: 4× the MIC, after 180 min of treatment
S. aureus USA300 [4] = assay: Time-dependent killing assay; format: cell-based; settings: 4× MIC, time-dependent killing curve, n = 3
Experimental: Overnight cultures of S. aureus USA300 were diluted 1:10000 in LB broth and incubated for 2 h at 37 °C and 200 rpm. […] After 15, 30, 60, 120, 180, 240, 300, and 360 min, 100 µL of cell suspension were collected, serially diluted, and plated on LB agar plates. After an incubation of 16 h at 37 °C, bacterial colonies were counted. Experiments were performed three independent times (n = 3).

S. aureus USA300 [5] = assay: Membrane lysis assay (SYTOX Green); format: cell-based; settings: S. aureus USA300 in PBS, 8 × MIC, n = 2
Experimental: Bacterial membrane lysis assay was performed in 384‐well black microtiter plates. Overnight cultures of S. aureus USA300 were collected and resuspended in PBS buffer to an OD600 of 0.5. 1 µL of 5 mM SYTOX Green dye was added to 2.5 mL of the diluted cell suspension, which was incubated for 10 min at room temperature in the dark. Fluorescence intensity was detected continually at 2 s intervals (Ex/Em 488/523 nm) using a Tecan spark multimode microplate reader. When the fluorescence signal stabilized, the appropriate amount of each compound (6.4 mg mL^−1 in DMSO, 8 × MIC) was added. DMSO and daptomycin (with 15 mM CaCl2) were used as negative and positive controls, respectively. Data were shown as the relative intensity with respect to the average fluorescence signal prior to the addition of each compound. All membrane lysis assays were performed two independent times (n = 2), and a representative fluorescence recording was presented.

[6] = system: S. aureus USA300 MprFT345A; assay: MIC against daptomycin-resistant mutant; format: cell-based
Experimental: All MIC assays were performed two independent times (n = 2) in 96‐well plates using a broth micro‐dilution method. The lowest concentration of that inhibited visible microbial growth was recorded as the MIC value.
For most of bacterial strains, overnight cultures were diluted 5000‐fold in LB broth. For E. faecium and S. aureus, overnight cultures were diluted 1000‐ and 10000‐fold in LB broth, respectively. 100 µL of diluted cells was mixed with 100 µL of LB broth containing each peptide ranging from 64 to 0.125 µg mL^−1 at 2‐fold serial dilutions.
Overnight cultures S. aureus USA300 were diluted 10000‐fold in LB broth, and 100 µL of dilute cell suspension was added to 96‐well plates containing 100 µL serially diluted aquicidine C4, telomycin, and daptomycin (with 15 mM CaCl2). Overnight cultures K. pneumoniae CRKP5452 were diluted 5000‐fold in LB broth, and 100 µL of dilute cell suspension was added to 96‐well plates containing 100 µL serially diluted aquicidine L and colistin. After an incubation of 24 h at 37 °C, the MIC value was determined. […] The MIC value was recorded as described above, and the process was repeated daily for 21 days. Experiments were performed two independent times (n = 2).
Single‐nucleotide polymorphisms (SNPs) for telomycin‐, daptomycin‐ or colistin‐resistant mutants were identified using SNIPPY by mapping DNBSEQ‐seq reads to the reference genome of S. aureus USA300 or K. pneumoniae CRKP5452.

[7] = Isothermal titration calorimetry; format: binding, Escherichia coli O55:B5; settings: Table S12; ITC, 2 mM LPS into 0.2 mM peptide, in H2O, 20 injections
Experimental: as §1

B. subtilis ATCC 23857 = assay: MIC assay (broth micro-dilution); format: cell-based; settings: Table S11; LB broth, 37 °C, 16 h, n = 2
Summary of the method: (§2)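 Broth microdilution in LB, run in two independent repeats. Overnight cultures were diluted 5000-fold, except S. aureus at 10000-fold, and mixed with peptide-containing LB (2-fold series, 64 to 0.125 µg mL^−1 before mixing). MIC is the lowest concentration that prevented visible growth.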

Escherichia coli DH5α = assay: MIC assay (broth micro-dilution); format: cell-based; settings: Table S11; LB broth, 37 °C, 16 h, n = 2
Summary of the method: as §2

| Compound | Kd ([1]; 2 mM CL into 0.2 mM peptide) | Kd ([1]; 2 mM PE into 0.2 mM peptide) | Kd ([1]; 2 mM PG into 0.2 mM peptide) | accumulation of UDP-MurNAc-pentapeptide (S. aureus USA300 [2]) | scanning electron microscopy, cell lysis (S. aureus USA300 [3]) | bactericidal activity, number of viable cells (S. aureus USA300 [4]) | SYTOX fluorescence (cell lysis) (S. aureus USA300 [5]) | antibacterial activity (MIC) S. aureus USA300 MprFT345A ([6]; Figure S127b, daptomycin-resistant mutant) | increase in MIC against resistant mutant compared to wild type ([6]; S. aureus USA300 MprF^T345A vs wild type) | Kd [7] | MIC Bacllussubtilis ATCC 23857 (B. subtilis ATCC 23857) | MIC Escherichia coli DH5α (Escherichia coli DH5α) |
| --- | --- | --- | --- | --- | --- | --- | --- | --- | --- | --- | --- | --- |
| CCCCCCCCCCCCCC(=O)N[C@@H](CN)C(=O)N[C@H](C(=O)N[C@@H](CC(C)C)C(=O)N[C@H]1COC(=O)[C@H](Cc2ccccc2)NC(=O)[C@H](CC(N)=O)NC(=O)[C@H](CCCN)NC(=O)[C@H]([C@@H](C)CC)NC(=O)[C@H](Cc2ccccc2)NC(=O)[C@H](CN)NC(=O)[C@H](CCN)NC1=O)[C@@H](C)O [synAQU5-C4] (Myristoyl-[Dap]TLS[Dab][Dap]FI[Orn]NF; ester 4-C) | 0.06 µM | 49.3 µM | 0.08 µM | did not show an obvious accumulation | lysed the majority of cells | decreased the number of viable cells by two orders of magnitude after 5 h | significant increase | 16 µg/mL | 4 fold | 1.84 µM | 2 µg/mL (≈ 1.41 µM) | 8 µg/mL (≈ 5.63 µM) |
| CCCCCCCCCCCCCC(=O)N[C@@H](CN)C(=O)N[C@H](C(=O)N[C@@H](CC(C)C)C(=O)N[C@@H](CO)C(=O)N[C@@H](CCN)C(=O)N[C@@H](CN)C(=O)N[C@@H](Cc1ccccc1)C(=O)N[C@H](C(=O)N[C@@H](CCCN)C(=O)N[C@@H](CC(N)=O)C(=O)N[C@@H](Cc1ccccc1)C(=O)O)[C@@H](C)CC)[C@@H](C)O [synAQU5-L] (Myristoyl-[Dap]TLS[Dab][Dap]FI[Orn]NF-OH) | 0.28 µM | 7.88 µM | 0.32 µM | did not show an obvious accumulation |  | only inhibited the growth of S. aureus USA300 within 2 h | not aquicidine L caused a significant increase |  |  | 0.29 µM | 8 µg/mL (≈ 5.56 µM) | 2 µg/mL (≈ 1.39 µM) |
